Blank lines part the entries; values can stand above or below the compound they belong to.
How the values were obtained:
[1] = hydrolysis of the amidine group to lactam in PBS buffer; format: physicochemical
Description: (§1) The hydrolytic degradation rates of benzazepine and 7-azabenzazepine compounds were directly compared in PBS (pH 7.4) at 37° C. to mimic in vivo effects and in formulation buffer to simulate storage and lifetime effects. […] The half-lives (t½) of aza-benzazepine compounds azaBa-6 and azaBz-8 were 30 days and 40 days, respectively. […] The amount of lactam is normalized for each sample at the start (to) for easier rate comparisons. The 7-aza modification is stabilizing in PBS and formulation buffer by about 5-fold relative to the corresponding benzazepine compounds.

[2] = degradation of amidine to lactam in human plasma; format: in vitro ADME; conditions: human plasma at room temperature after 24 hours
Description: Amidine benzazepine comparator compound CBz-3 (Table 1b) degrades in PBS buffer (pH 7.4) at 40° C. to produce lactam benzazepine comparator compound CBz-5 (Table 1b) at 90% at 17 days. […] In human plasma at room temperature after 24 hours, 15% of CBz-3 degrades to CBz-5.

human TLR7 or human TLR8 = assay: HEK Reporter Assay (TLR 7/8, receptor not separated); format: cell-based; conditions: lactam comparator compounds
Text: It was discovered that the amidine functional group of benzazepine adjuvant compounds, moieties conjugated to antibodies as immunoconjugates (WO 2020/252294; WO 2021/067242; WO 2022/125884; WO 2022/125891; WO 2022/125904; WO 2022/125908; WO 2022/125915), undergoes hydrolysis to the lactam functional group.
(§2) HEK293 reporter cells expressing human TLR7 or human TLR8 were purchased from Invivogen and vendor protocols were followed for cellular propagation and experimentation. Briefly, cells were grown to 80-85% confluence at 5% CO2 in DMEM supplemented with 10% FBS, Zeocin, and Blasticidin. Cells were then seeded in 96-well flat plates at 4×10^4 cells/well with substrate containing HEK detection medium and immunostimulatory molecules. Activity was measured using a plate reader at 620-655 nm wavelength.

human TLR7 = target: T1, human TLR7 (Homo sapiens, UniProt Q9NYK1); assay: HEK Reporter Assay, HEK293 NFKB reporter cells expressing human TLR7; format: cell-based
T1 construct: host or cells: HEK293 NFKB reporter cells
T1 sequence (Q9NYK1 27-1049): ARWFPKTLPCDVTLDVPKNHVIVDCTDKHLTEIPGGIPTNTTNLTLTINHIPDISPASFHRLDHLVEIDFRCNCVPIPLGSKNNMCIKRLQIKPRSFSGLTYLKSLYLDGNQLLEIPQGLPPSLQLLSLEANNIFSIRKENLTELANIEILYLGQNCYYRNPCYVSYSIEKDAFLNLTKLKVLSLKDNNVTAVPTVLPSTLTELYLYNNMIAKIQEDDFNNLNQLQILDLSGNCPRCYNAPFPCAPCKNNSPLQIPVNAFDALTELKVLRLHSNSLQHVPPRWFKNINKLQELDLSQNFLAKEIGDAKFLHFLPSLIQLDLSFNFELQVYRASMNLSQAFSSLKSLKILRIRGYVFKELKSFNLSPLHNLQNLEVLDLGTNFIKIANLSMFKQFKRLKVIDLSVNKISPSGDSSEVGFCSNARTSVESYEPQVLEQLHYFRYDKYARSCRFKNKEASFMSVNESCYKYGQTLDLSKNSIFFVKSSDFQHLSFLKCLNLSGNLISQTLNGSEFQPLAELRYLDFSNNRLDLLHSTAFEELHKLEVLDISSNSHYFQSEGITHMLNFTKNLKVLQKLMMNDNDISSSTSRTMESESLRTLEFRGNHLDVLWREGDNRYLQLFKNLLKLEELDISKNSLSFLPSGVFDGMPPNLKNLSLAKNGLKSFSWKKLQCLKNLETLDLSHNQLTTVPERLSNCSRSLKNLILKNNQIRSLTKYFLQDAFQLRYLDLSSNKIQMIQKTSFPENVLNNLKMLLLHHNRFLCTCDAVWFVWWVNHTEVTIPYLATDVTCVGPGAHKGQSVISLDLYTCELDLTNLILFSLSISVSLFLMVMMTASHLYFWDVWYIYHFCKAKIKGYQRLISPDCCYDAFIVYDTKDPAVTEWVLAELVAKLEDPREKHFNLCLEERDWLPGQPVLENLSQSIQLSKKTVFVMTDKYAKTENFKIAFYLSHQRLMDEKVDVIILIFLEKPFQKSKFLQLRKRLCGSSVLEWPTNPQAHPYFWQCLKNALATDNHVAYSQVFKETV
Description: (§3) Exemplary aza-benzazepine compounds (azaBza) of Table 1a and comparator compounds (CBz) of Table 1b were synthesized, purified, and characterized by mass spectrometry and shown to have the expected mass. Additional experimental procedures are found in the Examples. Activity against HEK293 NFKB reporter cells expressing human TLR7 or human TLR8 was measured according to Example 202.
as §2

human TLR8 = target: T2, human TLR8 (Homo sapiens, UniProt Q9NR97); assay: HEK Reporter Assay, HEK293 NFKB reporter cells expressing human TLR8; format: cell-based; conditions: read-out: EC50 against TLR8
T2 construct: host or cells: HEK293 NFKB reporter cells
T2 sequence (Q9NR97 27-1041): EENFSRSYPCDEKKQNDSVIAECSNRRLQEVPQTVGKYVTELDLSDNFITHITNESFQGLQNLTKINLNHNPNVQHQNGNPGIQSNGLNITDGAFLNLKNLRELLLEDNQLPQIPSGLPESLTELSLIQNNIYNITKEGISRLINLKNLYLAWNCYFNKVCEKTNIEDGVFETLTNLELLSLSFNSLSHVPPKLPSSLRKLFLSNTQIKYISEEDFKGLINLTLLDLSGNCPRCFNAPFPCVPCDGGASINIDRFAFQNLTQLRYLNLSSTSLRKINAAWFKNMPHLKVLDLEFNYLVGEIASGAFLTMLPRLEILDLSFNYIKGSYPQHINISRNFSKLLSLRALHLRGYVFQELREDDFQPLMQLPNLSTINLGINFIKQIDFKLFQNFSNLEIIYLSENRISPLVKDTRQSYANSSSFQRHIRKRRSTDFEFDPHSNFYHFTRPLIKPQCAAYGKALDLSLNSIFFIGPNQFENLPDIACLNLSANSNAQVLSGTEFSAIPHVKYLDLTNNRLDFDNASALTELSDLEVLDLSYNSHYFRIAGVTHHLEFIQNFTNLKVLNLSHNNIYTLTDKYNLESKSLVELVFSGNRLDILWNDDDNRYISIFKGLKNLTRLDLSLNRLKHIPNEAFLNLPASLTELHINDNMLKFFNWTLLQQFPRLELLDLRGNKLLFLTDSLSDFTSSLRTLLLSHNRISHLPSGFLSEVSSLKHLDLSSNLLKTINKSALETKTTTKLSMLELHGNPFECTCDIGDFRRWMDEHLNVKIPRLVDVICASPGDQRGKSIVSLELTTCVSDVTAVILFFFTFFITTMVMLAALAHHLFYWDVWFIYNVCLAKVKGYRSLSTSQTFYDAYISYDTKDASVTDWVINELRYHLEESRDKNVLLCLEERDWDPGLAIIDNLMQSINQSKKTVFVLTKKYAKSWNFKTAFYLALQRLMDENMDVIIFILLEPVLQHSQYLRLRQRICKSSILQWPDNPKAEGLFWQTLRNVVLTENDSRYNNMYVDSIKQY
Description: as §3, §2

[3] = hydrolysis of the amidine group to lactam in formulation buffer; format: physicochemical; conditions: formulation buffer pH 6, 22° C.; read-out: t ½ in formulation buffer (pH 6) at 22° C. (converted)
Description: A nitrogen at the 7-position is stabilizing and slows hydrolysis in aza-benzazepine compounds with a variety of substituents at the 8-position. […] The amount of lactam is normalized for each sample at the start (to) for easier rate comparisons.
as §1

[4] = PBS (pH 7.4) at 37° C., read-out: half-lives (t½), hydrolytic degradation (converted)
[5] = PBS pH 7.4, 37° C., read-out: t ½ in PBS (pH 7.4) at 37° C. (converted)

- half-life [1, 4]: 6 days
Structure (SMILES): CCCN(OCC)C(=O)C1=Cc2ccc(-c3cnc(CN)nc3)cc2N=C(N)C1 [CBz-2, reference compound]

- degraded to lactam (CBz-5) [2]: 15%
Structure (SMILES): CCCN(OCC)C(=O)C1=Cc2ccc(-c3cnc(CNC(=O)CCOCCOCCOCCOCCOCCOCCOCCOCCOCCOCCC(=O)O)cn3)cc2N=C(N)C1 [CBz-3]

- half-life [1, 4]: 8 days
Structure (SMILES): CCCN(OCC)C(=O)C1=Cc2ccc(C(=O)NCCOC)cc2N=C(N)C1 [CBz-7, reference compound]

Structure (SMILES): CCCN(OCC)C(=O)C1=Cc2ccc(-c3cnc(CN)nc3)cc2NC(=O)C1 [CBz-8]
- activity in the HEK assay (TLR 7/8 agonist) (human TLR7 or human TLR8): inactive

Structure (SMILES): CCCN(OCCNC(=O)NC1CCC1)C(=O)C1=Cc2ccc(-c3cnc(CN)nc3)cc2NC(=O)C1 [CBz-9]
- activity in the HEK assay (TLR 7/8 agonist) (human TLR7 or human TLR8): inactive

- response against TLR7 (human TLR7): no response
- EC50 (human TLR8): 5500 nM
Structure (SMILES): CCCN(CCC)C(=O)C1=Cc2ccncc2N=C(N)C1 [azaBz-2]

Structure (SMILES): CCCN(OCCNC(=O)OC(C)(C)C)C(=O)C1=Cc2cnc(C(=O)O)cc2N=C(N)C1 [azaBz-3, 2-amino-4-((2-((tert-butoxycarbonyl)amino)ethoxy)(propyl)carbamoyl)-3H-pyrido[4,3-b]azepine-8-carboxylic acid]
- half-life [3]: 30 days
- half-life [1, 5]: 20 days

- half-life [3]: 50 days
- half-life [1, 5]: 70 days
Structure (SMILES): CCCN(OCCNC(=O)OC(C)(C)C)C(=O)C1=Cc2cnc(S(=O)(=O)O)cc2N=C(N)C1 [azaBz-5]

- half-life [3]: 30 days
- half-life [1, 4]: 30 days
Structure (SMILES): CCCN(OCC)C(=O)C1=Cc2cnc(-c3cnc(CN)nc3)cc2N=C(N)C1 [azaBz-6, 2-amino-8-(2-(aminomethyl)pyrimidin-5-yl)-N-ethoxy-N-propyl-3H-pyrido[4,3-b]azepine-4-carboxamide]

- half-life [3]: 100 days
- half-life [1, 5]: 100 days
Structure (SMILES): CCCN(OCC)C(=O)C1=Cc2cnc(S(=O)(=O)NCCOC)cc2N=C(N)C1 [azaBz-7]

- half-life [3]: 40 days
- half-life [1, 4]: 40 days
Structure (SMILES): CCCN(OCC)C(=O)C1=Cc2cnc(S(=O)(=O)N(C)CCOC)cc2N=C(N)C1 [azaBz-8]

- EC50 (human TLR7; read-out: EC50 against TLR7): 842 nM
- EC50 (human TLR8): 196 nM
Structure (SMILES): CCCN(OCCNC(=O)OC(C)(C)C)C(=O)C1=Cc2ccncc2N=C(N)C1 [azaBz-24]
